A word on the Ki: it is the equilibrium dissociation constant of an inhibitor or competing ligand from its target. The low end stands for tighter binding, the high end for weaker binding. Usually ED50 stands for the midpoint of the dose-response relation. Read a high ED50 as a need for a large dose. Broadly, the EC50 is the concentration that produces a half-maximal response. Read a high EC50 as a need for much substance.

One experiment concerns the target Mu-type opioid receptor (Cavia porcellus, UniProt P97266). The experiment can be described thus: Binding affinity by its ability to displace [3H]DAMGO from mu receptor in homogenates of guinea pig brain. The class given is tissue-based.
The test system of another experiment is Rattus norvegicus. In words: Effective dose required for in vivo antinociceptive effect in rat when administered subcutaneously. In kind it is functional. As to conditions: sc.
The target in experiment [1] is Kappa-type opioid receptor (Cavia porcellus, UniProt P41144). The experiment can be described thus: Binding affinity by its ability to displace [3H]-U-69,593 from kappa receptor in homogenates of guinea pig brain. In kind it is tissue-based.
Chain of Kappa-type opioid receptor (P41144 whole entry): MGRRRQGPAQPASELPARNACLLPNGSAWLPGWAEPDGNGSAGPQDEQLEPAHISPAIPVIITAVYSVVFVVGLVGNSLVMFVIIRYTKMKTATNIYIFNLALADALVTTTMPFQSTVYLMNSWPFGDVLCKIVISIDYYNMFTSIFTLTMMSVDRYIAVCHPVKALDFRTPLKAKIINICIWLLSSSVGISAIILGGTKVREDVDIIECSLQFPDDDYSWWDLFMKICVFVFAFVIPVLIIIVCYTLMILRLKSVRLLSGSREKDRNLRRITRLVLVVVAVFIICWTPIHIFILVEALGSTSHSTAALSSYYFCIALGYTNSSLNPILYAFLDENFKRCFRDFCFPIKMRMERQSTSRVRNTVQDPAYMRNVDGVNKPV
The species named for experiment [2] is Mus musculus. The experiment can be described thus: In Vitro evaluation of antagonist activity induced by naloxone on mouse vas deferens preparation. The class given is functional.
Experiment [3] is filed under the species Mus musculus. The experiment can be described thus: Effective concentration required for in Vitro evaluation of agonist activity on mouse vas deferens preparation. The class given is functional.
Experiment [4] is filed under the species Mus musculus. In words: In vitro evaluation of antagonist activity induced by naloxone on mouse vas deferens preparation. The class given is functional.
For experiment [5], the species on record is Mus musculus. The experiment can be described thus: Effective concentration required for in vitro evaluation of agonist activity on mouse vas deferens preparation. In kind it is functional.
Experiment [6] is filed under the species Cavia porcellus. In words: Effective concentration required for in vitro agonist potency in guinea-pig ileum myenteric plexus preparation (GPI). In kind it is functional.
For experiment [7], the species on record is Cavia porcellus. The experiment can be described thus: In vitro evaluation of antagonistic activity induced by naloxone in guinea-pig ileum myenteric plexus preparation (GPI). The class given is functional.
Experiment [8] is filed under the species Cavia porcellus. In words: Effective concentration of compound required for in vitro agonist potency in guinea-pig ileum myenteric plexus preparation (GPI). The class given is functional.
Experiment [9] is filed under the species Mus musculus. In words: Effective concentration of compound required for in vitro agonist activity on mouse vas deferens preparation. In kind it is functional.

Chain of Mu-type opioid receptor (P97266 whole entry): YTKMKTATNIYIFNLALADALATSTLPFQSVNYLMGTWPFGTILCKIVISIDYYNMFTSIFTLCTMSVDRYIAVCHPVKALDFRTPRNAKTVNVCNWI

With `COc1cccc2c1[C@]13CCN(C)[C@H](C2)[C@]1(OC)CCC(=O)C3`, the Ki was found to be 0.7 nM at Mu-type opioid receptor and 1.5 nM in experiment [1]. Moreover, the ED50 in the experiment on Rattus norvegicus was 0.021 mg/kg.
For `COc1cccc2c1[C@]13CCN(CC4CC4)[C@H](C2)[C@]1(OC)CCC(=O)C3` [CYPRODIME BROMIDE], in experiment [1], the Ki came to 61.1 nM.
The compound `CC1(C)SSC(C)(C)[C@@H](NC(=O)[C@@H](N)Cc2ccc(O)cc2)C(=O)NCC(=O)N[C@@H](Cc2ccccc2)C(=O)N[C@H]1C(=O)O` gave a Ke in the experiment filed under Mus musculus [2] of 20.4 nM. In the experiment listed under Mus musculus [3], this compound came in with an EC50 of 2.8 nM.
Compound `CN1CC[C@]23c4c5ccc(O)c4O[C@H]2[C@@H](O)C=C[C@H]3[C@H]1C5.Cl` [MORPHINE HYDROCHLORIDE] showed a median effective dose (ED50) with Rattus norvegicus of 1.8 mg/kg.
`C[C@@H](NC(=O)[C@@H](N)Cc1ccc(O)cc1)C(=O)NCC(=O)N(C)[C@@H](Cc1ccccc1)C(=O)NCCO` [DAMGO]: the figures for the Ke in the experiment filed under Mus musculus [4] and in the experiment listed under Cavia porcellus [7] were 1.9 nM and 1.6 nM, respectively. For the same compound, the EC50 in the experiment listed under Mus musculus [5] turned out to be 24.7 nM; in the experiment listed under Cavia porcellus [6], 11.8 nM.
Turning to `Br.COc1cccc2c1[C@]13CCN(CCc4ccccc4)C(C2)[C@]1(OC)CCC(=O)C3`, the figures for the Ki (at Mu-type opioid receptor; in experiment [1]) were 0.9 nM and 690 nM, respectively. For the same compound, the Ke in the experiment listed under Mus musculus [4] is given as 1.67 nM; in the experiment listed under Cavia porcellus [7] it was 0.54 nM. Further, the 50% effect level in the experiment on Rattus norvegicus (ED50) was put at a dose of 0.037 mg/kg. In addition, the results for the concentration for a half-maximal effect (EC50) in the experiment listed under Cavia porcellus [8] and in the experiment listed under Mus musculus [9] were 17.4 nM and 11.8 nM, respectively.

The values are drawn from ChEMBL document CHEMBL1128801, “Synthesis and biological evaluation of 14-alkoxymorphinans.12.1 A phenethyl analogue of the -selective opioid receptor antagonist cyprodime” (Bioorg Med Chem Lett, 1995).
